Experimental data taken from US20260139254A1, “INTERFERING RNA FOR INHIBITING TOP1 GENE EXPRESSION AND USE THEREOF” (JENKEM TECHNOLOGY CO., LTD. (BEIJING), priority 2022, published 2026).
[Ψ] = pseudouridine; d = 2'-deoxy (DNA); r = 2'-OH (RNA)

What was measured:
[1] = test system: HCT116 human colon cancer cells; assay: Toxicity of LNP-siTOP1 and irinotecan on HCT116 cells (CCK-8 cell viability); format: cell-based; details: Homo sapiens, HCT-116; HCT116, 72 h, CCK-8
Experimental: (§1) After 72 h of transfection, 10 μL of CCK-8 solution was added to each well, and the cells were cultured in the incubator with 5% CO2 at 37° C. for another 4 h. The absorbance value at 450 nm was measured using a microplate reader. Cell viability was calculated according to the following formula: […]
(§2) On the day before transfection, HCT116 human colon cancer cells were seeded into a 96-well cell culture plate at 5000 cells/well, the culture medium being IMDM containing 10% FBS and 1% Penicillin-Streptomycin, and after plating, the cell culture plate was placed in an incubator with 5% CO2 at 37° C. for 24 h to allow the cells to adhere to the wall. 3 replicate wells were made for each group. On the day of transfection, the culture medium was changed to an IMDM culture medium without antibiotics (containing 10% FBS). LNP-siTOP1-1604 diluted with Opti-MEM culture medium was added, and the working concentrations of the siRNA were 500, 200, 100, 50, 20, and 5 nM. The control groups were Blank (Opti-MEM at the equal volume) and the positive control drug, irinotecan, at concentrations of 500, 200, 100, 50, 20, 5, and 1 μM. The cell culture plate was placed in the incubator with 5% CO2 at 37° C., and the cells were cultured for another 72 h. The cell viability was detected according to the method in Example 3 (Table 10). Fitting was performed using Graphpad software.

[2] = as above; format: cell-based, human; details: human, HCT116 colon cancer cells, HCT116, 72 h
Experimental: as §1, §2

[3] = test system: TOP1 mRNA; assay: Inhibitory effects of modified sequences of siTOP1-1604 on TOP1 mRNA in PC-3 cells; format: cell-based, human; details: PC-3, siRNA 50 nM
Experimental: PC-3 human prostate cancer cells were transfected with the modified siTOP1 according to the method in Example 2 at a siRNA working concentration of 50 nM. TOP1 mRNA levels were detected 48 h after the transfection. The control groups were Blank (Opti-MEM at the equal volume), Lipofectamine™ RNAiMAX (Lipo) transfection reagent, and the positive control unmodified siTOP-1604.

Compound | IC50 [1] | viability at 72 h, 1 µM ([2]; 1 μM) | viability at 72 h, 5 µM ([2]; 5 μM) | viability at 72 h, 20 µM ([2]; 20 μM) | viability at 72 h, 50 µM ([2]; 50 μM) | viability at 72 h, 100 µM ([2]; 100 μM) | viability at 72 h, 200 µM ([2]; 200 μM) | viability at 72 h, 500 µM ([2]; 500 μM) | Expression of TOP1 mRNA inhibited to ([3]; 48 h, compared to the control groups) | Relative expression level, mean value ([3]; 48 h after transfection, Blank = 100.00)
CCc1c2c(nc3ccc(OC(=O)N4CCC(N5CCCCC5)CC4)cc13)-c1cc3c(c(=O)n1C2)COC(=O)[C@]3(O)CC [Irinotecan] | 9.33 µM | 109% | 55.4% | 31.8% | 16.9% | 9.69% | 8.18% | 11.9% | – | –
siTOP1-1604-m4: Pseudouridine-modified siTOP1-1604; sense strand SEQ ID NO: 55, antisense strand SEQ ID NO: 56 (sense GUGUGGACAAGAUCCGGAATT; antisense UUCCGGAUCUUGUCCACACTT; sense: sugars from the 5' end r19 d2, [Ψ] at 2, 4, 13, backbone not given here; antisense: sugars from the 5' end r19 d2, [Ψ] at 1, 2, 8, 10, 11, 13, backbone not given here) | – | – | – | – | – | – | – | – | 4.3% | 4.30
